Source: article PMC7531004, “Discovery of gramicidin A analogues with altered activities by multidimensional screening of a one-bead-one-compound library” (Nature Communications, 2020)
Where a SMILES comes first, the peptide text is derived from it. [ ]: non-standard residue; d: D form. The star is where a group is joined. NHCH2CH2OH = OCCN*; For = O=C*

What was measured:
[1] = cell viability/%
Outline: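 First, library peptide stocks are diluted 250-fold in RPMI1640 with 10% heat-inactivated FBS. Next, they are mixed with P388 cells to give 1 × 10^4 cells/mL and incubated 92 h at 37 °C, 5% CO2. Finally, viability (%) is scored by WST-1 absorbance at 415 nm.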

[2] = H+/Na+ transport assay of bead-derived peptides (one-point); format: biochemical; set-up: key: relative activity; mean of two control wells = 1.00; conditions: bead-derived peptide solution, EYPC/EYPG LUVs;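 note: relative to parent gramicidin A activity set to 1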
Outline: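 One-point screen: peptide + pyranine-loaded LUVs, 30 min RT with vortexing, 96-well. Read-out is fluorescence intensity scaled as 100 × (Ix – I0)/(Imax – I0). Imax from Triton X-100, I0 from untreated vesicles, and the mean of the two control wells is set to 1.00.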

[3] = system: Streptococcus pyogenes SSI-9; test: Antibacterial activity assay of bead-derived peptides (three concentrations); format: cell-based; set-up: key: +++: inhibition by the 640-fold diluted peptide solution; ++: inhibition by the 160-fold diluted solution; +: inhibition by the 40-fold diluted solution; -: no inhibition; conditions: S. pyogenes, bead-derived peptide solution, three concentrations
Outline: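 Bead-derived library peptide stocks in DMSO were tested undiluted and after 4- and 16-fold DMSO dilution against S. pyogenes SSI-9 (2 × 10^5 CFU/well) in cation-adjusted Mueller Hinton Broth with 5% laked horse blood. After 18 h at 37 °C, wells were scored for precipitation of grown cells.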

Structure (SMILES)	viability [1]	H+/Na+ transport activity normalized against the value of 1 (1.00) [2]	antibacterial activity [3]
CC(C)C[C@@H](NC(=O)[C@H](Cc1c[nH]c2ccccc12)NC(=O)[C@H](NC(=O)[C@H](Cc1c[nH]c2ccccc12)NC(=O)[C@@H](CC(C)C)NC(=O)[C@H](Cc1c[nH]c2ccccc12)NC(=O)[C@@H](CC(C)C)NC(=O)[C@@H](NC(=O)[C@H](NC(=O)[C@H](C)NC(=O)[C@H](NC(=O)[C@H](C)NC(=O)CNC(=O)[C@@H](NC=O)C(C)C)C(C)C)C(C)C)C(C)C)C(C)C)C(=O)N[C@@H](Cc1c[nH]c2ccccc12)C(=O)NCCO [compound 12432] (For-VGA[dV]A[dV]V[dL]W[dL]W[dV]W[dL]W-NHCH2CH2OH)	6.4%	1.01	-
CC(C)C[C@@H](NC(=O)[C@H](C)NC(=O)CNC(=O)[C@@H](NC=O)C(C)C)C(=O)N[C@@H](C)C(=O)N[C@@H](C(=O)N[C@H](C(=O)N[C@@H](C(=O)N[C@@H](Cc1c[nH]c2ccccc12)C(=O)N[C@H](CC(C)C)C(=O)N[C@@H](Cc1c[nH]c2ccccc12)C(=O)N[C@@H](C(=O)N[C@@H](Cc1c[nH]c2ccccc12)C(=O)N[C@@H](C(=O)N[C@@H](Cc1c[nH]c2ccccc12)C(=O)NCCO)C(C)C)[C@H](C)O)C(C)C)C(C)C)C(C)C [compound 87] (For-VGA[dL]A[dV]V[dV]W[dL]W[dT]W[dV]W-NHCH2CH2OH)	100%	1.12	++
CC(C)C[C@@H](NC(=O)[C@H](C)NC(=O)CNC(=O)[C@@H](NC=O)C(C)C)C(=O)N[C@@H](C)C(=O)N[C@@H](C(=O)N[C@H](C(=O)N[C@H](CC(C)C)C(=O)N[C@@H](Cc1c[nH]c2ccccc12)C(=O)N[C@@H](C(=O)N[C@@H](Cc1c[nH]c2ccccc12)C(=O)N[C@@H](C(=O)N[C@@H](Cc1c[nH]c2ccccc12)C(=O)N[C@@H](C(=O)N[C@@H](Cc1c[nH]c2ccccc12)C(=O)NCCO)[C@H](C)O)C(C)C)C(C)C)C(C)C)C(C)C [compound 11625] (For-VGA[dL]A[dV]V[dL]W[dV]W[dV]W[dT]W-NHCH2CH2OH)	100%	1.08	-
CC(C)C[C@@H](NC(=O)[C@H](C)NC(=O)[C@H](NC(=O)[C@H](C)NC(=O)CNC(=O)[C@@H](NC=O)C(C)C)C(C)C)C(=O)N[C@H](C(=O)N[C@@H](C(=O)N[C@@H](Cc1c[nH]c2ccccc12)C(=O)N[C@H](CC(C)C)C(=O)N[C@@H](Cc1c[nH]c2ccccc12)C(=O)N[C@H](CC(C)C)C(=O)N[C@@H](Cc1c[nH]c2ccccc12)C(=O)N[C@@H](C(=O)N[C@@H](Cc1c[nH]c2ccccc12)C(=O)NCCO)C(C)C)[C@H](C)O)C(C)C [compound 6160] (For-VGA[dV]A[dL]V[dT]W[dL]W[dL]W[dV]W-NHCH2CH2OH)	70.3%	1.07	+
CC(C)C[C@@H](NC(=O)[C@H](Cc1c[nH]c2ccccc12)NC(=O)[C@H](NC(=O)[C@@H](NC(=O)[C@H](NC(=O)[C@H](C)NC(=O)[C@H](NC(=O)[C@H](C)NC(=O)CNC(=O)[C@@H](NC=O)C(C)C)C(C)C)[C@H](C)O)C(C)C)C(C)C)C(=O)N[C@@H](Cc1c[nH]c2ccccc12)C(=O)N[C@H](CC(C)C)C(=O)N[C@@H](Cc1c[nH]c2ccccc12)C(=O)N[C@@H](C(=O)N[C@@H](Cc1c[nH]c2ccccc12)C(=O)NCCO)C(C)C [compound 8141] (For-VGA[dV]A[dT]V[dV]W[dL]W[dL]W[dV]W-NHCH2CH2OH)	100%	1.03	-
CC(C)C[C@@H](NC(=O)[C@H](C)NC(=O)[C@H](NC(=O)[C@H](C)NC(=O)CNC(=O)[C@@H](NC=O)C(C)C)C(C)C)C(=O)N[C@H](C(=O)N[C@@H](C(=O)N[C@@H](Cc1c[nH]c2ccccc12)C(=O)N[C@H](CC(C)C)C(=O)N[C@@H](Cc1c[nH]c2ccccc12)C(=O)N[C@@H](C(=O)N[C@@H](Cc1c[nH]c2ccccc12)C(=O)N[C@@H](C(=O)N[C@@H](Cc1c[nH]c2ccccc12)C(=O)NCCO)C(C)C)[C@H](C)O)C(C)C)C(C)C [compound 8473] (For-VGA[dV]A[dL]V[dV]W[dL]W[dT]W[dV]W-NHCH2CH2OH)	53.6%	1.01	-
CNC(=O)C[C@@H](NC(=O)[C@H](Cc1c[nH]c2ccccc12)NC(=O)[C@H](NC(=O)[C@H](Cc1c[nH]c2ccccc12)NC(=O)[C@H](NC(=O)[C@H](Cc1c[nH]c2ccccc12)NC(=O)[C@H](NC(=O)[C@@H](NC(=O)[C@H](NC(=O)[C@H](C)NC(=O)[C@@H](CC(C)C)NC(=O)[C@H](C)NC(=O)CNC(=O)[C@@H](NC=O)C(C)C)C(C)C)C(C)C)C(C)C)C(C)C)C(C)C)C(=O)N[C@@H](Cc1c[nH]c2ccccc12)C(=O)NCCO [compound 362] (For-VGA[dL]A[dV]V[dV]W[dV]W[dV]W[dD](NHMe)W-NHCH2CH2OH)	100%	1.05	-
CC(C)C[C@@H](NC(=O)[C@H](C)NC(=O)[C@H](NC(=O)[C@H](C)NC(=O)CNC(=O)[C@@H](NC=O)C(C)C)C(C)C)C(=O)N[C@H](C(=O)N[C@H](CC(C)C)C(=O)N[C@@H](Cc1c[nH]c2ccccc12)C(=O)N[C@H](CC(C)C)C(=O)N[C@@H](Cc1c[nH]c2ccccc12)C(=O)N[C@@H](C(=O)N[C@@H](Cc1c[nH]c2ccccc12)C(=O)N[C@H](CC(C)C)C(=O)N[C@@H](Cc1c[nH]c2ccccc12)C(=O)NCCO)[C@H](C)O)C(C)C [compound 2682] (For-VGA[dV]A[dL]V[dL]W[dL]W[dT]W[dL]W-NHCH2CH2OH)	100%	1.06	+
CC(C)C[C@@H](NC(=O)[C@H](C)NC(=O)CNC(=O)[C@@H](NC=O)C(C)C)C(=O)N[C@@H](C)C(=O)N[C@H](CC(C)C)C(=O)N[C@H](C(=O)N[C@@H](C(=O)N[C@@H](Cc1c[nH]c2ccccc12)C(=O)N[C@@H](C(=O)N[C@@H](Cc1c[nH]c2ccccc12)C(=O)N[C@@H](C(=O)N[C@@H](Cc1c[nH]c2ccccc12)C(=O)N[C@H](CC(C)C)C(=O)N[C@@H](Cc1c[nH]c2ccccc12)C(=O)NCCO)C(C)C)[C@H](C)O)C(C)C)C(C)C [compound 2931] (For-VGA[dL]A[dL]V[dV]W[dT]W[dV]W[dL]W-NHCH2CH2OH)	100%	1.06	+
CC(C)C[C@@H](NC(=O)[C@H](C)NC(=O)[C@H](NC(=O)[C@H](C)NC(=O)CNC(=O)[C@@H](NC=O)C(C)C)C(C)C)C(=O)N[C@H](C(=O)N[C@H](CC(C)C)C(=O)N[C@@H](Cc1c[nH]c2ccccc12)C(=O)N[C@@H](C(=O)N[C@@H](Cc1c[nH]c2ccccc12)C(=O)N[C@@H](C(=O)N[C@@H](Cc1c[nH]c2ccccc12)C(=O)N[C@@H](C(=O)N[C@@H](Cc1c[nH]c2ccccc12)C(=O)NCCO)C(C)C)C(C)C)[C@H](C)O)C(C)C [compound 8554] (For-VGA[dV]A[dL]V[dL]W[dT]W[dV]W[dV]W-NHCH2CH2OH)	61.3%	1.03	-
